Key:
Type in all cases: in vivo
[1] = system: ragweed (common ragweed, Ambrosia elatior); assay: Test A preemergence; settings: Ambrosia artemisiifolia, pre-emergence, 240 h, preemergence, 0 to 100 scale where 0 is no effect and 100 is complete control, read-out: Ragweed plant response rating
Summary of the method: (§1)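 Each rating is a visual injury score from 0 to 100 given about 10 d after treatment, judged against untreated controls kept alongside in the greenhouse. In loam soil–sand blend, seeds got a preemergence directed soil spray, while postemergence plants were 2 to 10 cm tall at spraying.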

[2] = system: Kochia (Kochia scoparia); assay: Test A preemergence; settings: Bassia scoparia, pre-emergence, 240 h, preemergence, 0 to 100 scale where 0 is no effect and 100 is complete control, read-out: Kochia plant response rating
Summary of the method: as §1

[3] = system: ryegrass, Italian (Italian ryegrass, Lolium multiflorum); assay: Test A preemergence; settings: Lolium multiflorum, pre-emergence, 240 h, preemergence, 0 to 100 scale where 0 is no effect and 100 is complete control, read-out: Ryegrass, Italian plant response rating
Summary of the method: as §1

[4] = system: giant foxtail (Setaria faberii); assay: Test A preemergence; settings: Setaria faberi, pre-emergence, 240 h, preemergence, 0 to 100 scale where 0 is no effect and 100 is complete control, read-out: Foxtail, Giant plant response rating
Summary of the method: as §1

[5] = system: pigweed (Amaranthus retroflexus); assay: Test A preemergence; settings: Amaranthus retroflexus, pre-emergence, 240 h, preemergence, 0 to 100 scale where 0 is no effect and 100 is complete control, read-out: Pigweed plant response rating
[6] = system: wheat (Triticum aestivum); assay: Test A postemergence; settings: Triticum aestivum, post-emergence, 240 h, postemergence
Summary of the method: as §1

[7] = system: barnyardgrass (Echinochloa crus-galli); assay: Test A postemergence; settings: Echinochloa crus-galli, post-emergence, 240 h, postemergence
Summary of the method: as §1

[8] = system: corn (Zea mays); assay: Test A postemergence; settings: Zea mays, post-emergence, 240 h, postemergence
Summary of the method: as §1

[9] = system: ragweed (common ragweed, Ambrosia elatior); assay: Test A postemergence; settings: Ambrosia artemisiifolia, post-emergence, 240 h, postemergence
Summary of the method: as §1

[10] = system: Kochia (Kochia scoparia); assay: Test A postemergence; settings: Bassia scoparia, post-emergence, 240 h, postemergence
Summary of the method: as §1

[11] = system: blackgrass (Alopecurus myosuroides); assay: Test A postemergence; settings: Alopecurus myosuroides, post-emergence, 240 h, postemergence
Summary of the method: as §1

[12] = system: Galium (catchweed bedstraw, Galium aparine); assay: Test A postemergence; settings: Galium, post-emergence, 240 h, postemergence
Summary of the method: as §1

[13] = system: ryegrass, Italian (Italian ryegrass, Lolium multiflorum); assay: Test A postemergence; settings: Lolium multiflorum, post-emergence, 240 h, postemergence
Summary of the method: as §1

[14] = system: giant foxtail (Setaria faberii); assay: Test A postemergence; settings: Setaria faberi, post-emergence, 240 h, postemergence
Summary of the method: as §1

[15] = system: pigweed (Amaranthus retroflexus); assay: Test A postemergence; settings: Amaranthus retroflexus, post-emergence, 240 h, postemergence
Summary of the method: as §1

[16] = 125 g ai/ha, visual injury rating, approximately 10 d

With Cc1c(F)cccc1NC(=O)[C@H]1C(=O)N(C)C[C@@H]1c1ccc(F)c(Br)c1 [Compound 1211] as the compound, how does the pest or weed control at 125 g/ha [1, 16] read?
The pest or weed control at 125 g/ha was 50%.

And the pest or weed control at 500 g/ha ([1]; 500 g ai/ha)?
The pest or weed control at 500 g/ha was 50%.

What about the pest or weed control at 125 g/ha [2, 16] of the same compound?
Its pest or weed control at 125 g/ha is 20%.

And the pest or weed control at 500 g/ha ([2]; 500 g ai/ha)?
Its pest or weed control at 500 g/ha is 70%.

What about the pest or weed control at 125 g/ha [3, 16] of the same compound?
Its pest or weed control at 125 g/ha is 50%.

What about the pest or weed control at 500 g/ha ([3]; 500 g ai/ha) of the same compound?
Its pest or weed control at 500 g/ha is 80%.

And the pest or weed control at 125 g/ha [4, 16]?
The pest or weed control at 125 g/ha was 100%.

And the pest or weed control at 500 g/ha ([4]; 500 g ai/ha)?
Its pest or weed control at 500 g/ha is 100%.

What about the pest or weed control at 125 g/ha [5, 16] of the same compound?
The pest or weed control at 125 g/ha was 50%.

What about the pest or weed control at 500 g/ha ([5]; 500 g ai/ha) of the same compound?
The pest or weed control at 500 g/ha was 70%.

And the plant injury at 125 g/ha ([6]; 125 g ai/ha, visual injury vs untreated controls after approx. 10 d, 0 = no effect, 100 = complete control, read-out: Wheat plant response rating (0 to 100 scale))?
Its plant injury at 125 g/ha is 30%.

And the plant injury at 500 g/ha ([6]; 500 g ai/ha, 0 to 100 scale, 0 is no effect, 100 is complete control, read-out: Wheat plant response rating)?
Its plant injury at 500 g/ha is 60%.

What about the pest or weed control at 125 g/ha ([7]; 125 g ai/ha, visual injury vs untreated controls after approx. 10 d, 0 = no effect, 100 = complete control, read-out: Barnyardgrass plant response rating (0 to 100 scale)) of the same compound?
The pest or weed control at 125 g/ha was 100%.

What about the pest or weed control at 500 g/ha ([7]; 500 g ai/ha, 0 to 100 scale, 0 is no effect, 100 is complete control, read-out: Barnyardgrass plant response rating) of the same compound?
Its pest or weed control at 500 g/ha is 100%.

And the plant injury at 125 g/ha ([8]; 125 g ai/ha, visual injury vs untreated controls after approx. 10 d, 0 = no effect, 100 = complete control, read-out: Corn plant response rating (0 to 100 scale))?
The plant injury at 125 g/ha was 80%.

And the plant injury at 500 g/ha ([8]; 500 g ai/ha, 0 to 100 scale, 0 is no effect, 100 is complete control, read-out: Corn plant response rating)?
The plant injury at 500 g/ha was 90%.

What about the pest or weed control at 125 g/ha ([9]; 125 g ai/ha, visual injury vs untreated controls after approx. 10 d, 0 = no effect, 100 = complete control, read-out: Ragweed plant response rating (0 to 100 scale)) of the same compound?
Its pest or weed control at 125 g/ha is 0%.

And the pest or weed control at 500 g/ha ([9]; 500 g ai/ha, 0 to 100 scale, 0 is no effect, 100 is complete control, read-out: Ragweed plant response rating)?
Its pest or weed control at 500 g/ha is 0%.

And the pest or weed control at 125 g/ha ([10]; 125 g ai/ha, visual injury vs untreated controls after approx. 10 d, 0 = no effect, 100 = complete control, read-out: Kochia plant response rating (0 to 100 scale))?
The pest or weed control at 125 g/ha was 0%.

And the pest or weed control at 500 g/ha ([10]; 500 g ai/ha, 0 to 100 scale, 0 is no effect, 100 is complete control, read-out: Kochia plant response rating)?
The pest or weed control at 500 g/ha was 30%.

What about the pest or weed control at 125 g/ha ([11]; 125 g ai/ha, visual injury vs untreated controls after approx. 10 d, 0 = no effect, 100 = complete control, read-out: Blackgrass plant response rating (0 to 100 scale)) of the same compound?
The pest or weed control at 125 g/ha was 30%.

And the pest or weed control at 500 g/ha ([11]; 500 g ai/ha, 0 to 100 scale, 0 is no effect, 100 is complete control, read-out: Blackgrass plant response rating)?
The pest or weed control at 500 g/ha was 40%.

What about the pest or weed control at 125 g/ha ([12]; 125 g ai/ha, visual injury vs untreated controls after approx. 10 d, 0 = no effect, 100 = complete control, read-out: Galium plant response rating (0 to 100 scale)) of the same compound?
Its pest or weed control at 125 g/ha is 50%.

What about the pest or weed control at 500 g/ha ([12]; 500 g ai/ha, 0 to 100 scale, 0 is no effect, 100 is complete control, read-out: Galium plant response rating) of the same compound?
Its pest or weed control at 500 g/ha is 60%.

What about the pest or weed control at 125 g/ha ([13]; 125 g ai/ha, visual injury vs untreated controls after approx. 10 d, 0 = no effect, 100 = complete control, read-out: Ryegrass, Italian plant response rating (0 to 100 scale)) of the same compound?
Its pest or weed control at 125 g/ha is 0%.

And the pest or weed control at 500 g/ha ([13]; 500 g ai/ha, 0 to 100 scale, 0 is no effect, 100 is complete control, read-out: Ryegrass, Italian plant response rating)?
Its pest or weed control at 500 g/ha is 70%.

What about the pest or weed control at 125 g/ha ([14]; 125 g ai/ha, visual injury vs untreated controls after approx. 10 d, 0 = no effect, 100 = complete control, read-out: Foxtail, Giant plant response rating (0 to 100 scale)) of the same compound?
The pest or weed control at 125 g/ha was 80%.

And the pest or weed control at 500 g/ha ([14]; 500 g ai/ha, 0 to 100 scale, 0 is no effect, 100 is complete control, read-out: Foxtail, Giant plant response rating)?
Its pest or weed control at 500 g/ha is 80%.

And the pest or weed control at 125 g/ha ([15]; 125 g ai/ha, visual injury vs untreated controls after approx. 10 d, 0 = no effect, 100 = complete control, read-out: Pigweed plant response rating (0 to 100 scale))?
Its pest or weed control at 125 g/ha is 30%.

And the pest or weed control at 500 g/ha ([15]; 500 g ai/ha, 0 to 100 scale, 0 is no effect, 100 is complete control, read-out: Pigweed plant response rating)?
Its pest or weed control at 500 g/ha is 30%.

Reference: patent US12077503B2, “Substituted cyclic amides and their use as herbicides” (FMC CORPORATION, priority 2015, dated 2024)
